The target of one data set is T1, human DGAT1 (Homo sapiens, UniProt O75907).
T1 construct: FLAG (N); made in house; host or cells: SF9 insect cells (pFastBac baculovirus); total cell membranes
T1 sequence (O75907 1-488): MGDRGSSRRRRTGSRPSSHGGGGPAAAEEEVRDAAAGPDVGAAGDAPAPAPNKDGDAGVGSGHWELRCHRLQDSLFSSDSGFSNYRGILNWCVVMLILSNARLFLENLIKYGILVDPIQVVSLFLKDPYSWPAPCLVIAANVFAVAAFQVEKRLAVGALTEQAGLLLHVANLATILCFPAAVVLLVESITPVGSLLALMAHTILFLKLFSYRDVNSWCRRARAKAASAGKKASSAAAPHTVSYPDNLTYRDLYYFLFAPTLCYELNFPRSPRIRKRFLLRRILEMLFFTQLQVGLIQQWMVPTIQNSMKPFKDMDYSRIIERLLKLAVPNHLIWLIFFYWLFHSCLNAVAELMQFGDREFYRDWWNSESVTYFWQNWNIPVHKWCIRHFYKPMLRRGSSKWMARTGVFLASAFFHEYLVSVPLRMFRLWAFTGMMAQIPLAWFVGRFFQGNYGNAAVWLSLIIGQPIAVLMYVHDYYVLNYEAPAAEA
The data set can be described thus: Inhibition of DGAT1 activity, FlashPlate assay with DGAT1 membrane preparations and substrate micelles. The format is biochemical. The settings on record: pIC50 = -logIC50, IC50 values expressed in M. In short, it runs like this: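 FLAG-tagged human DGAT1 membranes (expressed in Sf9 cells) were incubated 120 min at 37° C. in 50 mM Tris-HCl pH 7.4 with 150 mM MgCl2, 1 mM EDTA, 0.2% BSA, 50 μM DAG micelles (PC/PS) and 8.4 μM [^3H]-oleoylCoA. The reaction was stopped with N-ethylmaleimide and read as FlashPlate radioluminescence. Responses were normalized to enzyme/no-enzyme controls to fit dose-response curves.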

For another data set, the system named is GLP-1 plasma levels. The data set is described as follows: In vivo study for effect of test compound on GLP-1 plasma levels (postprandial profile). The settings on record: dogs fasted 22 hours, liquid meal 18% fat, compound given orally with the meal; compared with own profile without compound; compound 223 at 0.3 mg/kg in FIG. 1. The method, then:
B) In Vivo Study for Effect of Test Compound on GLP-1 Plasma Levels
Elevation of GLP-1 plasma levels by a DGAT inhibitor was studied as follows:
(§1) Dogs were deprived from food for a period of 22 hours. At time 0, animals were given a liquid meal, containing 18% fat (w/w), by gavage with a stomach tube. The test compound was given orally together with the meal. Afterwards, a postprandial plasma profile was determined for GLP-1. Therefore, blood was collected at predetermined time intervals in ice-cooled Vacutainers EDTA-plasma tubes and GLP-1 levels were measured in the samples taken at 0 hour (just before the meal) and at 0.5, 1, 2, 4, 6, 8 and 24 hours after dosing. Six dogs (3 males and 3 females) were included per dosage group and the plasma GLP-1 profile was compared with their own GLP-1 profile previously determined in the same conditions but without administration of the test compound.
GLP-1 determinations in plasma were performed with a Glucagon-like peptide-1 (active) ELISA kit 96-well plate of LINCO Research.

Data set [1] concerns plasma triglyceride levels. The data set can be described thus: Plasma triglyceride profile after liquid fat meal in dogs. It is filed as in vivo. Particulars: liquid meal 18% fat, compound given orally, compared with own profile without compound. The method, then:
as §1
In addition to the plasma GLP-1 profile, also the plasma triglyceride profile can be determined and compared with their own triglyceride profile previously determined in the same conditions but without administration of the test compound. After administration of compound 223, triglyceride levels decreased.

For the compound `CNC(C)c1cc(Cl)c(NC(=O)N2CCN(c3ccc(NC(=O)CCCc4ccccc4)cc3)CC2)c(Cl)c1` (centres unmarked) [Compound 24], the melting point came out at 180.7 °C. This compound showed an IC50 against human DGAT1 of 0.0158 µM. The “GLP-1 plasma levels (postprandial plasma profile)” value in the data set with GLP-1 plasma levels is “increase GLP-1 levels”.
The matching figures for `O=C(CCCc1ccccc1)Nc1ccc(N2CCN(C(=O)Nc3c(Cl)cc(O)cc3Cl)CC2)cc1` [Compound 30]: 175.4 °C, 0.00447 µM and “increase GLP-1 levels”.
For `COc1ccc(CC(=O)Nc2ccc(N3CCN(C(=O)Nc4c(Cl)cc(CN5CCCC5)cc4Cl)CC3)cc2)cc1` [Compound 223], the melting point was determined as 252.22 °C. The compound further gave an IC50 against human DGAT1 of 0.02 µM. The “GLP-1 plasma levels (postprandial plasma profile)” value in the data set on GLP-1 plasma levels is given as “increase GLP-1 levels”. The “plasma triglyceride levels (profile)” value in data set [1] is “decreased”.
In the case of `CC(c1cc(Cl)c(NC(=O)N2CCN(c3ccc(NC(=O)CCCc4ccccc4)cc3)CC2)c(Cl)c1)N(C)C` (centres unmarked) [Compound 288], the melting point came to 191.86 °C. This compound also had an IC50 against human DGAT1 of 0.01 µM.
Compound `O=C(CCNc1ccccc1Cl)Nc1ccc(N2CCN(C(=O)Nc3c(Cl)cccc3Cl)CC2)cc1` [Compound 289] yielded a melting point of 244 to 245 °C. In addition, the IC50 against human DGAT1 was 0.0102 µM.
The compound `O=C(CCCC(=O)OCc1ccccc1)Nc1ccc(N2CCN(C(=O)Nc3c(Cl)cc(CN4CCCCC4)cc3Cl)CC2)cc1` [Compound 292] yielded a melting point of 180 to 181 °C. In addition, at human DGAT1, the IC50 was 0.0107 µM.
`Cc1ccc(NCCC(=O)Nc2ccc(N3CCN(C(=O)Nc4c(Cl)cccc4Cl)CC3)cc2)c(C)c1` [Compound 298] returned a melting point of 241 to 242 °C. This compound also gave an IC50 at human DGAT1 of 0.0174 µM.
`COc1ccc(CC(=O)Nc2ccc(N3CCN(C(=O)Nc4c(Cl)cc(C[N+]5([O-])CCCC5)cc4Cl)CC3)cc2)cc1` [Compound 299]: the melting point came to 168.24 °C. The compound further had an IC50 against human DGAT1 of 0.0191 µM.
The corresponding values for `O=C(CCCc1ccccc1)Nc1ccc(C2CCN(C(=O)Nc3c(Cl)cc(C(=O)O)cc3Cl)CC2)cc1` [Compound 301] are 152 to 153 °C and 0.0209 µM.
The corresponding values for `O=C(COC(=O)c1ccccc1)Nc1ccc(N2CCN(C(=O)Nc3c(Cl)cc(CN4CCCC4)cc3Cl)CC2)cc1` [Compound 304] are 243.74 °C and 0.0219 µM.
`COc1ccc(CC(=O)Nc2ccc(N3CCN(C(=O)Nc4c(Cl)cc(C(=O)N5CCN(C)CC5)cc4Cl)CC3)cc2)cc1` [Compound 305] came in with a melting point of 253.39 °C. In addition, at human DGAT1, half-maximal inhibition (IC50) required 0.0245 µM.
The corresponding values for `O=C(CC(=O)OCc1ccccc1)Nc1ccc(N2CCN(C(=O)Nc3c(Cl)cc(CN4CCCC4)cc3Cl)CC2)cc1` [Compound 307] are 206.22 °C and 0.0295 µM.
`Cc1ccc(CNCC(=O)Nc2ccc(N3CCN(C(=O)Nc4c(Cl)cc(O)cc4Cl)CC3)cc2)c(C)c1` [Compound 311] came in with a melting point of 212 to 213 °C. Also, the IC50 at human DGAT1 was 0.0437 µM.
On to `COc1ccc(CC(=O)Nc2ccc(N3CCN(C(=O)Oc4c(Cl)cc(CN(C)C)cc4Cl)CC3)cc2)cc1` [Compound 312], for which the melting point is 182.46 °C. Besides, it took 0.0447 µM to reach half-maximal inhibition against human DGAT1 (IC50).
`COc1ccc(CC(=O)Nc2ccc(N3CCN(C(=O)Nc4c(Cl)cc(CC[N+](C)(C)C)cc4Cl)CC3)cc2)cc1` [Compound 317] displayed a melting point of 248.28 °C. Also, the IC50 on human DGAT1 was 0.0631 µM.
On to `CCOC(=O)CCCC(=O)Nc1ccc(N2CCN(C(=O)Nc3c(Cl)cc(CN4CCCCC4)cc3Cl)CC2)cc1` [Compound 318], for which the melting point is 211 to 212 °C. At human DGAT1, this compound showed an IC50 of 0.0646 µM.
`CC(=O)c1cc(Cl)c(NC(=O)N2CCC(c3ccc(NC(=O)CCCc4ccccc4)cc3)CC2)c(Cl)c1` [Compound 319] yielded a melting point of 160 to 161 °C. At human DGAT1, 0.0661 µM corresponded to half-maximal inhibition (IC50).
The compound `CCOC(=O)CCCC(=O)Nc1ccc(N2CCN(C(=O)Nc3c(Cl)cc(CN4CCCC4)cc3Cl)CC2)cc1` [Compound 322] yielded a melting point of 208.65 °C. This compound gave an IC50 on human DGAT1 of 0.0912 µM.
The matching figures for `COC(=O)c1cc(Cl)c(NC(=O)N2CCC(c3ccc(NC(=O)CCCc4ccccc4)cc3)CC2)c(Cl)c1` [Compound 324]: 204 to 205 °C and 0.107 µM.
For the compound `O=C(CCC(O)c1ccccc1)Nc1ccc(N2CCN(C(=O)Cc3c(Cl)cccc3Cl)CC2)cc1` (centres unmarked) [Compound 333], the melting point was determined as 200.57 °C. Further, at human DGAT1, the IC50 was 0.355 µM.
The corresponding values for `CC(O)c1cc(Cl)c(NC(=O)N2CCN(c3ccc(N(C)C(=O)CCCc4ccccc4)cc3)CC2)c(Cl)c1` (centres unmarked) [Compound 335] are 179.55 °C and 0.479 µM.
In turn, `O=C(CCCc1ccccc1)Nc1ccc(N2CCN(C(=O)Cc3ccccc3)CC2)cc1` [Compound 338] displayed a melting point of 146.12 °C. The IC50 against human DGAT1 is 2.57 µM.
For the compound `O=C(CCCc1ccccc1)Nc1ccc(N2CCN(C(=O)Nc3ccccc3)CC2)cc1` [Compound 339], the melting point is 219.91 °C. At human DGAT1, inhibition was half-maximal at 3.09 µM (IC50).

The values above are taken from patent US8981094B2, “Piperidine/piperazine derivatives” (Janssen Pharmaceutica N.V., priority 2007, dated 2015).
